One data set concerns zebrafish juveniles. Nature of the data set: Model of exercise retardation, death and teratogenicity in zebrafish juveniles made of aluminium trichloride. The settings on record: for Movement distance: 72 hpe, n=6; for Movement distance / Malformation rate / Mortality rate: mean ± SE; for Malformation rate / Mortality rate: after 72 h, n=90.
The target of data set [1] is T1, AChE from Electrophorus electricus (Electrophorus electricus, UniProt O42275).
T1 construct: purchased Macklin
Nature of the data set: biochemical. It counts as biochemical. The settings on record: for IC50: AChE from Electrophorus electricus, mean ± SD (n=3); for AChE inhibitory activity (in words): verbal summary of Table 2; for Selectivity AChE/BuChE (in words): verbal summary of SI. The protocol: (§1) In the experiment, 0.05 mol/L phosphate buffered saline (PBS) of pH 8.0 was prepared first, and then the following solutions were prepared: 1.5 mmol/L Acetylthiocholine iodide (ATChI); 0.75 mmol/L 5, 5'-Dithiobis-(2-nitrobenzoic acid) (DTNB, Sigma Aldrich, St. Louis, MO); 0.2 U/mL Acetylcholinesterase (AChE, from […], Macklin); 0.5 U/mL Butyrylcholinesterase (BuChE, from equine serum, Aladdin, Shanghai, China); 1.5 mmol/L S-Butyrylthiocholine iodide (BTChI, Sigma Aldrich, St. Louis, MO). 4% sodium dodecyl sulphate (SDS) was prepared with secondary water. […] All solutions were stored in a refrigerator at 4 °C.
(§2) The AChE/BuChE inhibitory activity of the 3–(4-aminophenyl)-coumarin derivatives was determined by the method of Ellaman[28] with slight modifications. The experiment was divided into control group, sample blank group and sample group. Take a series of test tubes, the reagents were loaded in test tubes at the dose of Table 6. After incubation at 37 °C for 20 min, quickly add 1 mL of 4% SDS to stop the reaction. […] All experiments were run in triplicate. The absorbance was determined by UV spectrophotometer, and the inhibition rate of AChE and the IC50 value of each sample were calculated according to the formula. Inhibition rate % = {[(AC−AS)−ASB]/AC} ×100%, where AC (no sample added) is the absorbance of control group; AS is the absorbance of sample group; ASB (add sample solution but no substrate ATChI added) is the absorbance of sample blank group.

Another data set deals with T2, BuChE from equine serum (Equus caballus, UniProt P81908).
T2 construct: Butyrylcholinesterase (BuChE, from equine serum, Aladdin, Shanghai, China); purchased Aladdin, Shanghai, China; host or cells: equine serum
The data set is described as follows: biochemical. It counts as biochemical. The settings on record: for IC50: BuChE from equine serum, mean ± SD (n=3); for BuChE inhibitory activity (in words): verbal summary of Table 2, comparison with donepezil. The protocol: as §1, §2
The method for determining BuChE is the same as the method for measuring AChE. The sample can be added with reference to Table 6, AChE is changed to BuChE, and the substrate ATChI is changed to substrate BTChI. The order of loading and the amount of loading are the same as Table 6. The absorbance was determined by UV spectrophotometer, and the inhibition rate of BuChE and the IC50 value of each sample were calculated according to the formula. The formula used is the same as AChE.

Data set [2] deals with aluminium trichloride-induced zebrafish juveniles. Nature of the data set: Effects of compounds on aluminium trichloride-induced behavioural inhibition of zebrafish juveniles (Zebrobox). The settings on record: for Total movement distance: mean ± SE, n=8; for Effect on behavioural inhibition of zebrafish induced by aluminium trichloride (in words): compared with the model group.
Experimental: The most suitable modelling concentrations were chosen, and then the effect of the compounds on the behaviour of the aluminium trichloride-induced zebrafish juveniles was explored.
The 72 hpf zebrafish were placed in a petri dish, and the normal developing juveniles were selected under a microscope in a 12-well plate. […] The continuous drug solution was exposed for 3 days. […] Each well was juvenile fish developed to 72 h post-exposure (hpe) and added 0.5 mL of culture water and 8 juveniles were set in each experimental group. The well plate was placed in the dark box of the zebrafish behaviour analysis system. The fish was first adapted to 10 min at the beginning of the experiment. The trajectories of the juveniles in each group were collected using zeblab software for 10 min, recorded every 5 min, and exported by software. Then calculate the total distance of each group of zebrafish juveniles.
The zebrafish with 72 hpf after fertilisation is placed in a petri dish. Under normal conditions, the normal developing juvenile fish are selected in a 12-well plate, and 15 juveniles per hole are set. Control group (0.5% DMSO), model group (5.0 mg/L AlCl3), 5.0 mg/L AlCl3 + test compound 5 μg/mL group, 5.0 mg/L AlCl3 + test compound 10 μg/mL group, 5.0 mg/L AlCl3 + test compound 50 μg/mL group, 5.0 mg/L AlCl3 + test compound 100 μg/mL group, three duplicate wells were set at each concentration. After the administration, the zebrafish was placed in a constant temperature incubator at 28 °C to continue the culture for 3 days. Changing the liquid (aquaculture water) every 24 h and removing dead young fish.

The mark [3] stands for this setting: 5 mg/L compound + 5.0 mg/L AlCl3, 3 days.
Setting [4] is: 10 mg/L compound + 5.0 mg/L AlCl3, 3 days.
The mark [5] stands for this setting: 50 mg/L compound + 5.0 mg/L AlCl3, 3 days.
[6] abbreviates: 100 mg/L compound + 5.0 mg/L AlCl3, 3 days.

Entries after “also recorded” stand apart in the source; their conditions may differ.

T2 sequence (P81908 whole entry): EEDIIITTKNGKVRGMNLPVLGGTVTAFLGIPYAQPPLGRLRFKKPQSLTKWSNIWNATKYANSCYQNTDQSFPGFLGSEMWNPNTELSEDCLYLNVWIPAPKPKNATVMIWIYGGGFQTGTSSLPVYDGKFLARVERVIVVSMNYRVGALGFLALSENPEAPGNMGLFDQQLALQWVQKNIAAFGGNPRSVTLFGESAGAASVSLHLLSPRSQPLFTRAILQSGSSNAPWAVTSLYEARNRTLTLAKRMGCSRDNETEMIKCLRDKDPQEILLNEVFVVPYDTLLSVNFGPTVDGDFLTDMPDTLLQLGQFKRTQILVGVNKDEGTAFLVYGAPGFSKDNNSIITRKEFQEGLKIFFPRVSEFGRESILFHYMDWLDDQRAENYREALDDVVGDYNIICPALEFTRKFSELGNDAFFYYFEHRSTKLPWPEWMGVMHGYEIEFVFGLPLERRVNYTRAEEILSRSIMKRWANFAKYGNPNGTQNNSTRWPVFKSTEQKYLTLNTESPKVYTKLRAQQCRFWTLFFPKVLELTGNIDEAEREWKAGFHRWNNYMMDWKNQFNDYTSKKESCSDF
T1 sequence (O42275 24-633): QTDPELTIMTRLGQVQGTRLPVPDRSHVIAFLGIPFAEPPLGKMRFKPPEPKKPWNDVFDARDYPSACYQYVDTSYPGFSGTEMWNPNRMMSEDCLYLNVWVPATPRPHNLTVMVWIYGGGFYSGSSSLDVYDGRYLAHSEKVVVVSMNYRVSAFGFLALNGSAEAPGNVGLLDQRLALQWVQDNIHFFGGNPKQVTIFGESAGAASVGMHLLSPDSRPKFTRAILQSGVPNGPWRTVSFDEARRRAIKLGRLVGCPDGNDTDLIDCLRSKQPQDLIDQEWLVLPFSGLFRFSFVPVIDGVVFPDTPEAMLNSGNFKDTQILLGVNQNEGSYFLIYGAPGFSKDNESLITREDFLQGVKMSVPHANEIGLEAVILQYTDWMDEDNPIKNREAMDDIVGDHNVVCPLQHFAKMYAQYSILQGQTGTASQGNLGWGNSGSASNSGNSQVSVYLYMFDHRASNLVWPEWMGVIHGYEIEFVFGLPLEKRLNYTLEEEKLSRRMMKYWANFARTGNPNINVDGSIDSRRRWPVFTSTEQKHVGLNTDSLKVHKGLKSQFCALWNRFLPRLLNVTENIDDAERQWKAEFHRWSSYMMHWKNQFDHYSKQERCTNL

For the compound `[Cl][Al]([Cl])[Cl]` [AlCl3, aluminium trichloride], the Movement distance in the data set on zebrafish juveniles (AlCl3 0.1 mg/L) was found to be 292.4 ± 6.7 cm; in the data set with zebrafish juveniles (AlCl3 0.5 mg/L), 236.8 ± 9.4 cm; with zebrafish juveniles (AlCl3 1.0 mg/L) it was 224.3 ± 10.8 cm; in the data set on zebrafish juveniles (AlCl3 5.0 mg/L), 181.3 ± 9.6 cm; in the data set on zebrafish juveniles (AlCl3 10.0 mg/L), 204.6 ± 12.8 cm. The Malformation rate stood at 0.00 ± 0.00% in the data set with zebrafish juveniles (AlCl3 0.1 mg/L); 0.00 ± 0.00% in the data set on zebrafish juveniles (AlCl3 0.5 mg/L); 1.11 ± 0.17% with zebrafish juveniles (AlCl3 1.0 mg/L); 2.22 ± 0.17% in the data set with zebrafish juveniles (AlCl3 5.0 mg/L); 16.67 ± 0.29 % in the data set with zebrafish juveniles (AlCl3 10.0 mg/L); 100.00 ± 0.00 % in the data set with zebrafish juveniles (AlCl3 50.0 mg/L). In addition, the Mortality rate with zebrafish juveniles (AlCl3 0.1 mg/L) amounted to 0.00 ± 0.00%; in the data set on zebrafish juveniles (AlCl3 0.5 mg/L), 0.00 ± 0.00%; in the data set on zebrafish juveniles (AlCl3 1.0 mg/L), 0.00 ± 0.00%; in the data set on zebrafish juveniles (AlCl3 5.0 mg/L), 1.11 ± 0.17%; in the data set with zebrafish juveniles (AlCl3 10.0 mg/L), 11.11 ± 0.17 %; with zebrafish juveniles (AlCl3 50.0 mg/L), 100.00 ± 0.00 %. Moreover, in the data set with zebrafish juveniles (AlCl3 50.0 mg/L, after 24 h administration), the “Death or malformation of zebrafish (in words)” value is “Most of the fish in the 50.0 mg/L group were dead or malformed”. Also, the “Death of zebrafish (in words)” value in the data set with zebrafish juveniles (AlCl3 50.0 mg/L, at 48 h) is reported as “all fish died”.
One may read the IC50 as the concentration at which inhibition is half-maximal. A higher IC50 goes with weaker potency in that assay. `COc1cccc2cc(-c3ccc(NC(=O)c4cccc(F)c4)cc3)c(=O)oc12` [Compound 4j, 3-[4-(3-fluoro-benzoylamino)-phenyl]-8-methoxy-coumarin]: the 50% inhibitory concentration (IC50) in data set [1] worked out at 4.16 ± 0.161 µM; on BuChE from equine serum it was 0.905 ± 0.081 µM. Moreover, the “SI: selectivity index (IC50 BuChE/IC50 AChE)” value (from here on “SI: selectivity index”) in data set [1] was determined as 0.217. In addition, the “AChE inhibitory activity (in words)” value in data set [1] is reported as “moderate to excellent AChE inhibitory activity”. Besides, the “BuChE inhibitory activity (in words)” value on BuChE from equine serum is “better than donepezil”. Also, the Total movement distance in data set [2] (setting [3]) is 208.8 ± 9.6 cm; in data set [2] (setting [4]), 226 ± 10.7 cm; in data set [2] (setting [5]) it was 231.8 ± 13.2 cm; in data set [2] (setting [6]) it was 225.7 ± 13.4 cm. Besides, in data set [2], the “Effect on behavioural inhibition of zebrafish induced by aluminium trichloride (in words)” value (“Effect on behavioural inhibition” below) was “certain therapeutic effects; also recorded: could alleviate the behavioural inhibition symptoms”.
As for `COc1cccc2cc(-c3ccc(NC(=O)c4ccc(F)cc4)cc3)c(=O)oc12` [Compound 4k, 3-[4-(4-fluoro-benzoylamino)-phenyl]-8-methoxy-coumarin], the values for the IC50 (in data set [1]; against BuChE from equine serum) were 28 ± 2.56 µM and 0.559 ± 0.017 µM, respectively. Further, the “SI: selectivity index” value in data set [1] was found to be 0.020. Further, the “Selectivity AChE/BuChE (in words)” value in data set [1] is given as “highly selective for BuChE”. Also, the “BuChE inhibitory activity relative to donepezil” value at BuChE from equine serum (more active than donepezil) came to 5 times. Moreover, the “BuChE inhibitory activity (in words)” value at BuChE from equine serum was “better than donepezil”. The Total movement distance is given as 194.9 ± 5.5 cm in data set [2] (setting [3]), 186.7 ± 7.7 cm in data set [2] (setting [4]), 181.8 ± 6.9 cm in data set [2] (setting [5]) and 205.7 ± 9.5 cm in data set [2] (setting [6]).
Consider `COc1cccc2cc(-c3ccc(NC(=O)c4ccc(C(F)(F)F)cc4)cc3)c(=O)oc12` [Compound 4l, 3-[4-(4-trifluoromethyl-benzoylamino)-phenyl]-8-methoxy-coumarin], for which the values for the 50% inhibitory concentration (IC50) (in data set [1]; on BuChE from equine serum) were 5.6 ± 0.132 µM and 4.32 ± 0.685 µM, respectively. The “SI: selectivity index” value in data set [1] amounted to 0.772. For the same compound, the “AChE inhibitory activity (in words)” value in data set [1] is reported as “moderate to excellent AChE inhibitory activity”. In addition, the Total movement distance in data set [2] (setting [3]) was found to be 179.9 ± 10.1 cm; in data set [2] (setting [4]), 194.6 ± 13.6 cm; in data set [2] (setting [5]), 211.5 ± 20.2 cm; in data set [2] (setting [6]), 184.8 ± 11.5 cm.
Take `COc1cccc2cc(-c3ccc(NC(=O)c4ccc(CCl)cc4)cc3)c(=O)oc12` [Compound 4m, 3-[4-(4-chloromethyl-benzoylamino)-phenyl]-8-methoxy-coumarin]: the IC50 in data set [1] came to 0.091 ± 0.011 µM; against BuChE from equine serum, 41.2 ± 1.04 µM. The “SI: selectivity index” value in data set [1] was found to be 452.637. Also, in data set [1], the “Selectivity AChE/BuChE (in words)” value is “highly selective for AChE”. Moreover, the “AChE inhibitory activity (in words)” value in data set [1] was “moderate to excellent AChE inhibitory activity”. Moreover, the Total movement distance in data set [2] (setting [3]) turned out to be 198.3 ± 10.1 cm; in data set [2] (setting [4]), 210.2 ± 6.0 cm; in data set [2] (setting [5]), 230.8 ± 6.2 cm; in data set [2] (setting [6]), 247.1 ± 12.3 cm. Also, in data set [2] (at 50.0 and 100.0 μg/mL concentration), the “Effect on total distance of zebrafish juvenile movement (in words)” value is recorded as “significant therapeutic effect; also recorded: significant effects compared with the model group”. For the same compound, the “Effect on behavioural inhibition” value in data set [2] is “certain therapeutic effects; also recorded: could alleviate the behavioural inhibition symptoms”.
As to `COc1cccc2cc(-c3ccc(NC(=O)c4cccc(Cl)c4Cl)cc3)c(=O)oc12` [Compound 4r, 3-[4-(2,3-dichloro-benzoylamino)-phenyl]-8-methoxy-coumarin], the IC50 in data set [1] came out at 19.7 ± 2.45 µM; on BuChE from equine serum it was 4.33 ± 0.125 µM. Further, the “SI: selectivity index” value in data set [1] was determined as 0.220. For the same compound, the Total movement distance in data set [2] (setting [3]) stood at 178 ± 11.2 cm; in data set [2] (setting [4]), 182.4 ± 4.6 cm; in data set [2] (setting [5]) it was 196.4 ± 11.7 cm; in data set [2] (setting [6]) it was 194.4 ± 9.4 cm.
`O=C(Nc1ccc(-c2cc3ccc(O)cc3oc2=O)cc1)c1ccco1` [Compound 5a, 3-[4-(furan-2-formylamino)-phenyl]-7-hydroxy-coumarin]: the IC50 in data set [1] amounted to 2.49 ± 0.151 µM; on BuChE from equine serum, 9.55 ± 0.455 µM. Further, the “SI: selectivity index” value in data set [1] is recorded as 3.842. For the same compound, the “AChE inhibitory activity (in words)” value in data set [1] is given as “moderate to excellent AChE inhibitory activity”. For the same compound, the Total movement distance in data set [2] (setting [3]) stood at 194.2 ± 6.5 cm; in data set [2] (setting [4]) it was 188.8 ± 14.7 cm; in data set [2] (setting [5]), 215.5 ± 17.1 cm; in data set [2] (setting [6]) it was 187.2 ± 6.2 cm.
Consider `COc1cccc2cc(-c3ccc(NC(=O)c4ccc5ccccc5c4)cc3)c(=O)oc12` [Compound 7b, 3-[4-(2-naphthoylamino)-phenyl]-8-methoxy-coumarin], for which, in data set [1], the midpoint of inhibition, the IC50, lay at 0.128 ± 0.011 µM; the “SI: selectivity index” value is 341.87; the “Selectivity AChE/BuChE (in words)” value was “highly selective for AChE”; the “AChE inhibitory activity (in words)” value is reported as “moderate to excellent AChE inhibitory activity”. This compound also came in with an IC50 on BuChE from equine serum of 43.8 ± 1.97 µM. For the same compound, the Total movement distance in data set [2] (setting [4]) was found to be 278.4 ± 11.4 cm. Further, the Total movement distance in data set [2] (setting [5]) is recorded as 227.4 ± 8.1 cm. Further, in data set [2] (setting [6]), the Total movement distance was 272.1 ± 10.4 cm.
Turning to `COc1cccc2cc(-c3ccc(NC(=O)c4cccs4)cc3)c(=O)oc12` [Compound 7d, 3-[4-(thiophene-2-formylamino)-phenyl]-8-methoxy-coumarin], the IC50 in data set [1] is 6.63 ± 0.12 µM; against BuChE from equine serum it was 4.65 ± 0.245 µM. Also, the “SI: selectivity index” value in data set [1] worked out at 0.700. In data set [1], the “AChE inhibitory activity (in words)” value was “moderate to excellent AChE inhibitory activity”. Further, the Total movement distance in data set [2] (setting [3]) amounted to 202.9 ± 6.2 cm; in data set [2] (setting [4]), 208.4 ± 9.7 cm; in data set [2] (setting [5]), 224.2 ± 9.2 cm; in data set [2] (setting [6]), 235.4 ± 11.4 cm. Besides, the “Effect on behavioural inhibition” value in data set [2] is reported as “certain therapeutic effects; also recorded: could alleviate the behavioural inhibition symptoms”.

Source of the values: PMC6534212, “Synthesis and biological evaluation of 3–(4-aminophenyl)-coumarin derivatives as potential anti-Alzheimer’s disease agents” (Journal of Enzyme Inhibition and Medicinal Chemistry, 2019).
